Results from patent US20250340570A1, “COMPOSITIONS USEFUL FOR MODULATING SPLICING” (Skyhawk Therapeutics, Inc., priority 2022, published 2025).

Assays:
[1] = test system: ATXN3 transcripts containing exon 4; assay: ATXN3 quantitative splicing assay (qPCR, E4E5 transcripts containing exon 4); type: cell-based; conditions: Human neuroblastoma SK-N-MC cells, 24 h treatment, qPCR primers/probe E4E5
Method: Human neuroblastoma SK-N-MC cells were plated in 384-well plates at 20,000 cells/well. Twenty-four hours after plating, cells were treated with compounds for 24 h at appropriate concentrations ranging from 30 μM to 0.6 nM (0.3% DMSO). Treated cells were lysed in 15 μL of lysis buffer, and cDNA was synthesized using the Fast Advanced Cells-to-Ct kit. Two μL of each cDNA was used in qPCR reactions to confirm the exon 4 skipped transcripts of ATXN3. A second set of primers/probe E4E5 was used to detect the transcripts containing exon 4. The third set of primers/probe E8E9 was used to detect total gene level of ATXN3. The qPCR reactions were prepared in 384-well plates in 10.L volume, using TaqMan™ Fast Advanced Master Mix with primers and probes shown in the table below. Reactions were run in a Quant Studio 6 qPCR instrument with default settings.
The primers and probes are listed below in Table 5.

[2] = test system: total ATXN3 protein; assay: ATXN3 total protein assay (Mesoscale Discovery); type: cell-based; conditions: Human neuroblastoma SK-N-MC cells, 48 hours incubation, MSD assay
Method: Human neuroblastoma SK-N-MC cells were seeded at 10,000 cells/well in 384 well plates one day prior to compound treatment. The concentrations of compounds were tested at appropriate doses ranging from 30 µM to 0.6 nM. After incubation for 48 hours, the cells were lysed with 25.L of lysis buffer containing protease inhibitors, and total ATXN3 protein levels were assessed by Mesoscale Discovery (MSD) assay developed with one pair of and-ATXN3 antibodies. The capture and detect antibodies were raised in mouse and rabbit respectively. Anti-rabbit MSD-ST antibody was used for secondary antibody.
ATXN3 recombinant protein was used for standards. The readouts were captured with 35.L of MSD read buffer and multi-array 384-well high binding plates.

Cc1csc2c(NCc3ccncc3)snc12 [Compound 1, [(4-pyridyl)methyl](8-methyl-3,6-dithia-2-azabicyclo[3.3.0]octa-1,4,7-trien-4-yl)amine]
IC50 [1]: 10 to 40 µM | IC50 [2]: 10 to 40 µM

Cc1csc2c(NCc3ccccc3)snc12 [Compound 3, (benzyl)(8-methyl-3,6-dithia-2-azabicyclo[3.3.0]octa-1,4,7-trien-4-yl)amine]
IC50 [1]: 10 to 40 µM | IC50 [2]: 10 to 40 µM

Cc1csc2c(NCc3ccco3)snc12 [Compound 4, (furfuryl)(8-methyl-3,6-dithia-2-azabicyclo[3.3.0]octa-1,4,7-trien-4-yl)amine]
IC50 [1]: 10 to 40 µM | IC50 [2]: 10 to 40 µM

Cc1c(C[C@H](C)N)sc2c(NCc3ccccc3)snc12 [Compound 5, 7-[(S)-2-aminopropyl]-4-benzylamino-8-methyl-3,6-dithia-2-azabicyclo[3.3.0]octa-1,4,7-triene]
IC50 [1]: 5 to 10 µM | IC50 [2]: 0.501 to 5 µM

Cc1c(C[C@H](C)N)sc2c(NCc3ccco3)snc12 [Compound 6, 7-[(S)-2-aminopropyl]-4-(furfurylamino)-8-methyl-3,6-dithia-2-azabicyclo[3.3.0]octa-1,4,7-triene]
IC50 [1]: 0.501 to 5 µM | IC50 [2]: 0.501 to 5 µM

Cc1c(C[C@H](C)N)sc2c(NCc3cccs3)snc12 [Compound 7, 7-[(S)-2-aminopropyl]-8-methyl-4-thenylamino-3,6-dithia-2-azabicyclo[3.3.0]octa-1,4,7-triene]
IC50 [1]: 0.501 to 5 µM | IC50 [2]: 0.501 to 5 µM

Cc1c(C[C@@H](N)CC2CC2)sc2c(NCc3cccs3)snc12 [Compound 8, 7-[(S)-2-amino-3-cyclopropylpropyl]-8-methyl-4-thenylamino-3,6-dithia-2-azabicyclo[3.3.0]octa-1,4,7-triene]
IC50 [1]: 5 to 10 µM | IC50 [2]: 5 to 10 µM

Cc1c(C[C@@H](N)CC2CC2)sc2c(NCc3ccco3)snc12 [Compound 9, 7-[(S)-2-amino-3-cyclopropylpropyl]-4-(furfurylamino)-8-methyl-3,6-dithia-2-azabicyclo[3.3.0]octa-1,4,7-triene]
IC50 [1]: 0.501 to 5 µM | IC50 [2]: 0.501 to 5 µM

Cc1c(C[C@@H](N)CF)sc2c(NCc3cccs3)snc12 [Compound 10, 7-[(R)-2-amino-3-fluoropropyl]-8-methyl-4-thenylamino-3,6-dithia-2-azabicyclo[3.3.0]octa-1,4,7-triene]
IC50 [1]: 0.501 to 5 µM | IC50 [2]: 0.501 to 5 µM

C[C@H](N)Cc1sc2c(NCc3cccs3)snc2c1Cl [Compound 17, 7-[(S)-2-aminopropyl]-8-chloro-4-thenylamino-3,6-dithia-2-azabicyclo[3.3.0]octa-1,4,7-triene]
IC50 [1]: 0.501 to 5 µM | IC50 [2]: 0.101 to 0.5 µM

C[C@H](N)Cc1sc2c(NCc3cccs3)snc2c1Br [Compound 18, 7-[(S)-2-aminopropyl]-8-bromo-4-thenylamino-3,6-dithia-2-azabicyclo[3.3.0]octa-1,4,7-triene]
IC50 [1]: 0.101 to 0.5 µM | IC50 [2]: 0.101 to 0.5 µM

C[C@H](N)Cc1sc2c(NCc3cccs3)snc2c1C#N [Compound 19, 7-[(S)-2-aminopropyl]-4-thenylamino-3,6-dithia-2-azabicyclo[3.3.0]octa-1,4,7-triene-8-carbonitrile]
IC50 [1]: 0.501 to 5 µM | IC50 [2]: 0.501 to 5 µM

C[C@H](N)Cc1sc2c(NCc3cccs3)snc2c1C1CC1 [Compound 20, 7-[(S)-2-aminopropyl]-8-cyclopropyl-4-thenylamino-3,6-dithia-2-azabicyclo[3.3.0]octa-1,4,7-triene]
IC50 [1]: 10 to 40 µM | IC50 [2]: 10 to 40 µM

C=Cc1c(C[C@H](C)N)sc2c(NCc3cccs3)snc12 [Compound 21, 5-[(2S)-2-aminopropyl]-6-ethenyl-N-(thiophen-2-ylmethyl) thieno[3,2-c][1,2]thiazol-3-amine]
IC50 [1]: 10 to 40 µM | IC50 [2]: 10 to 40 µM

C[C@H](N)Cc1sc2c(NCc3ccco3)snc2c1Cl [Compound 23, 7-[(S)-2-aminopropyl]-8-chloro-4-(furfurylamino)-3,6-dithia-2-azabicyclo[3.3.0]octa-1,4,7-triene]
IC50 [1]: 0.101 to 0.5 µM | IC50 [2]: 0.101 to 0.5 µM

C[C@H](N)Cc1sc2c(NCc3ccco3)snc2c1Br [Compound 24, 7-[(S)-2-aminopropyl]-8-bromo-4-(furfurylamino)-3,6-dithia-2-azabicyclo[3.3.0]octa-1,4,7-triene]
IC50 [1]: 0.101 to 0.5 µM | IC50 [2]: 0.101 to 0.5 µM

C[C@H](N)Cc1sc2c(NCc3ccco3)snc2c1O [Compound 25, 7-[(S)-2-aminopropyl]-4-(furfurylamino)-3,6-dithia-2-azabicyclo[3.3.0]octa-1,4,7-trien-8-ol]
IC50 [1]: 10 to 40 µM | IC50 [2]: 10 to 40 µM

COc1c(C[C@H](C)N)sc2c(NCc3ccco3)snc12 [Compound 26, 5-[(2S)-2-aminopropyl]-N-(furan-2-ylmethyl)-6-methoxythieno[3,2-c][1,2]thiazol-3-amine]
IC50 [1]: 5 to 10 µM | IC50 [2]: 5 to 10 µM

C[C@H](N)Cc1sc2c(NCc3cccs3)snc2c1O [Compound 27, 7-[(S)-2-aminopropyl]-4-thenylamino-3,6-dithia-2-azabicyclo[3.3.0]octa-1,4,7-trien-8-ol]
IC50 [1]: 10 to 40 µM | IC50 [2]: 10 to 40 µM

COc1c(C[C@H](C)N)sc2c(NCc3cccs3)snc12 [Compound 28, 7-[(S)-2-aminopropyl]-8-methoxy-4-thenylamino-3,6-dithia-2-azabicyclo[3.3.0]octa-1,4,7-triene]
IC50 [1]: 5 to 10 µM | IC50 [2]: 10 to 40 µM

C[C@H](N)Cc1sc2c(NCc3cccs3)snc2c1F [Compound 30, 7-[(S)-2-aminopropyl]-8-fluoro-4-thenylamino-3,6-dithia-2-azabicyclo[3.3.0]octa-1,4,7-triene]
IC50 [1]: 5 to 10 µM | IC50 [2]: 10 to 40 µM

C[C@H](N)Cc1sc2c(NCc3ccco3)snc2c1C1CC1 [Compound 31, 7-[(S)-2-aminopropyl]-8-cyclopropyl-4-(furfurylamino)-3,6-dithia-2-azabicyclo[3.3.0]octa-1,4,7-triene]
IC50 [1]: 5 to 10 µM | IC50 [2]: 5 to 10 µM

C[C@H](N)Cc1sc2c(NCc3cccs3)snc2c1C(F)(F)F [Compound 35, 7-[(S)-2-aminopropyl]-4-thenylamino-8-(trifluoromethyl)-3,6-dithia-2-azabicyclo[3.3.0]octa-1,4,7-triene]
IC50 [1]: 0.501 to 5 µM | IC50 [2]: 0.501 to 5 µM

Cc1c(C[C@@H](N)CC(F)(F)F)sc2c(NCc3cccs3)snc12 [Compound 36, 7-[(S)-2-amino-4,4,4-trifluorobutyl]-8-methyl-4-thenylamino-3,6-dithia-2-azabicyclo[3.3.0]octa-1,4,7-triene]
IC50 [1]: 0.501 to 5 µM | IC50 [2]: 0.501 to 5 µM

Cc1c(C[C@@H](N)CO)sc2c(NCc3cccs3)snc12 [Compound 37, (R)-2-amino-3-(8-methyl-4-thenylamino-3,6-dithia-2-azabicyclo[3.3.0]octa-1,4,7-trien-7-yl)-1-propanol]
IC50 [1]: 0.501 to 5 µM | IC50 [2]: 0.501 to 5 µM

N[C@H](Cc1sc2c(NCc3cccs3)snc2c1Cl)CC(F)(F)F [Compound 38, 7-[(S)-2-amino-4,4,4-trifluorobutyl]-8-chloro-4-thenylamino-3,6-dithia-2-azabicyclo[3.3.0]octa-1,4,7-triene]
IC50 [1]: 0.501 to 5 µM | IC50 [2]: 0.501 to 5 µM

N[C@H](Cc1sc2c(NCc3cccs3)snc2c1Br)CC(F)(F)F [Compound 39, 7-[(S)-2-amino-4,4,4-trifluorobutyl]-8-bromo-4-thenylamino-3,6-dithia-2-azabicyclo[3.3.0]octa-1,4,7-triene]
IC50 [1]: 0.501 to 5 µM | IC50 [2]: 0.501 to 5 µM

N[C@H](Cc1sc2c(NCc3ccco3)snc2c1Cl)CC(F)(F)F [Compound 40, 7-[(S)-2-amino-4,4,4-trifluorobutyl]-8-chloro-4-(furfurylamino)-3,6-dithia-2-azabicyclo[3.3.0]octa-1,4,7-triene]
IC50 [1]: 0.501 to 5 µM | IC50 [2]: 0.501 to 5 µM

N[C@H](Cc1sc2c(NCc3ccco3)snc2c1Br)CC(F)(F)F [Compound 41, 7-[(S)-2-amino-4,4,4-trifluorobutyl]-8-bromo-4-(furfurylamino)-3,6-dithia-2-azabicyclo[3.3.0]octa-1,4,7-triene]
IC50 [1]: 0.501 to 5 µM | IC50 [2]: 0.501 to 5 µM

N[C@H](Cc1sc2c(NCc3cccs3)snc2c1Cl)C(F)F [Compound 42, 7-[(R)-2-amino-3,3-difluoropropyl]-8-chloro-4-thenylamino-3,6-dithia-2-azabicyclo[3.3.0]octa-1,4,7-triene]
IC50 [1]: 0.501 to 5 µM | IC50 [2]: 0.501 to 5 µM

N[C@@H](CO)Cc1sc2c(NCc3cccs3)snc2c1Cl [Compound 43, (R)-2-amino-3-(8-chloro-4-thenylamino-3,6-dithia-2-azabicyclo[3.3.0]octa-1,4,7-trien-7-yl)-1-propanol]
IC50 [1]: 0.501 to 5 µM | IC50 [2]: 0.101 to 0.5 µM

COC[C@H](N)Cc1sc2c(NCc3cccs3)snc2c1Cl [Compound 44, 7-[(R)-2-amino-3-methoxypropyl]-8-chloro-4-thenylamino-3,6-dithia-2-azabicyclo[3.3.0]octa-1,4,7-triene]
IC50 [1]: 5 to 10 µM | IC50 [2]: 0.501 to 5 µM

Cc1c(CCCN)sc2c(NCc3cccs3)snc12 [Compound 45, 7-(3-aminopropyl)-8-methyl-4-thenylamino-3,6-dithia-2-azabicyclo[3.3.0]octa-1,4,7-triene]
IC50 [1]: 10 to 40 µM | IC50 [2]: 10 to 40 µM
